Results as given in paper PMC5055294 (PLoS ONE, 2016).

Legend:
Assay type in all cases: cell-based
[1] = target: T1, GPR1 (Homo sapiens, UniProt P46091); assay: ERK1/2 phosphorylation in MEF cells, GPR1; design: expressed in transfected cells; settings: PTX pre-treatment, 300 nM chemerin
T1 sequence (P46091 1-355): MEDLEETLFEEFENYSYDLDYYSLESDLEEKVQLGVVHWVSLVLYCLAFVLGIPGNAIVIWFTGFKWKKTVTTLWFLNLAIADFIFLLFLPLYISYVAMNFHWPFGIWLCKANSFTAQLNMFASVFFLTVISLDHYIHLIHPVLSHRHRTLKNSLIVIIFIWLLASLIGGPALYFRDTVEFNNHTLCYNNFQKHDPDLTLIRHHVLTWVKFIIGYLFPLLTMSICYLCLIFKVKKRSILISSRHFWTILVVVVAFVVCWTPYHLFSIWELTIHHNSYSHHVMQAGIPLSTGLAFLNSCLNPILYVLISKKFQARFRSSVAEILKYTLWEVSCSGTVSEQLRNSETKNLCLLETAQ
Method: CHO-K1 and MEF cells stably expressing receptors of interest were starved for 12–18 h in serum-free medium prior to stimulation. […] Whole cell lysates were resolved on 10% Tris/Tricine polyacrylamide gels and transferred to nitrocellulose membranes. Phosphorylated ERK1/2 and total ERK1/2 were detected by using rabbit polyclonal anti-phospho-ERK1/2 (Cell Signaling #4370, 1:1,000) and anti-ERK1/2 (Cell Signaling #4695S, 1:2,000) antibodies. Chemiluminescent detection was performed using ECL-Plus reagent (Perkin Elmer).
We next investigated the contribution of Gαi/o proteins and arrestins to ERK1/2 phosphorylation by using mouse embryonic fibroblast cells (MEF) deficient for the expression of arrestins (β-Arr1^-/- and β-Arr2^-/-) and stably expressing CMKLR1 or GPR1. […] However, we cannot rule out that the weak activation of G proteins by GPR1 contributes to ERK1/2 phosphorylation. We also must take into consideration that these assays display different levels of amplification and were performed in different cell types.
Fig 10 Contribution of Gi/o proteins and arrestins to CMKLR1- and GPR1-mediated ERK1/2 phosphorylation. […] Results are expressed as the ratio between the amounts of phospho-ERK1/2 and total ERK1/2 following quantification. […] Statistical significance was assessed using Tukey's test (***P < 0.0001; ** and ^## P< 0.001; * and ^# P< 0.01).

[2] = target: T2, CMKLR1 (Homo sapiens, UniProt Q99788); assay: β-arrestin BRET recruitment assay, CMKLR1; design: expressed in transfected cells; host or cells: HEK293T; settings: CMKLR1, HEK293T; PTX pretreatment, 100 nM chemerin
T2 sequence (Q99788 1-373): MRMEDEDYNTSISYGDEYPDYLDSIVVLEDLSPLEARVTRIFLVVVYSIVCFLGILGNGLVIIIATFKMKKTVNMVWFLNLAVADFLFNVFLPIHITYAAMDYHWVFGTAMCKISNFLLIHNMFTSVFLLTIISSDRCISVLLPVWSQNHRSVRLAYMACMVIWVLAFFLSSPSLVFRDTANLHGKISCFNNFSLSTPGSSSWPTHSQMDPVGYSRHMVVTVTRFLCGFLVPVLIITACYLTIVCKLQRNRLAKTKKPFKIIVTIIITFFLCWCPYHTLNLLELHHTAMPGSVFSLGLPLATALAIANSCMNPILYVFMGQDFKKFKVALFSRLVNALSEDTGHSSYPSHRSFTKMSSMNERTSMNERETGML
Method: (§1) β-arrestin recruitment was measured by a BRET proximity assay as previously described. Briefly, plasmids encoding Rluc-β-arrestin 2 and receptors fused to Venus were cotransfected into HEK293T cells by using the calcium phosphate method. […] BRET^1 between RLuc and YFP was measured after the addition of coelenterazine h (5 μM, Promega).
(§2) Data represent the mean ± S.E.M. of three independent experiments.
as §2

[3] = target: T1, GPR1; assay: β-arrestin BRET recruitment assay, GPR1; design: expressed in transfected cells; host or cells: HEK293T; settings: GPR1, HEK293T; PTX pretreatment, 100 nM chemerin
Method: as §1, §2, §2

[4] = target: T2, CMKLR1; assay: ERK1/2 phosphorylation in MEF cells, CMKLR1; design: expressed in transfected cells; settings: PTX pre-treatment, 300 nM chemerin
Method: Whole cell lysates were resolved on 10% Tris/Tricine polyacrylamide gels and transferred to nitrocellulose membranes. […] Chemiluminescent detection was performed using ECL-Plus reagent (Perkin Elmer).
Results are expressed as the ratio between the amounts of phospho-ERK1/2 and total ERK1/2 following quantification. […] MEF cells were derived form β-Arr1 KO and WT1 or β-Arr2 KO and WT2 siblings.

Substance: Pertussis toxin
- effect of PTX on ERK1/2 phosphorylation [1]: partially inhibited
- effect of PTX on β-arrestin1 recruitment [2]: inhibits partially β-arrestin1 recruitment to CMKLR1 and GPR1
- effect of PTX on β-arrestin2 recruitment [2]: did not inhibit β-arrestin2 recruitment to CMKLR1 and GPR1
- effect of PTX on β-arrestin1 recruitment [3]: inhibits partially β-arrestin1 recruitment to CMKLR1 and GPR1
- effect of PTX on β-arrestin2 recruitment [3]: did not inhibit β-arrestin2 recruitment to CMKLR1 and GPR1
- effect of PTX on ERK1/2 phosphorylation [4]: partially inhibited
